Laboratory results published in patent US20060235062A1, “Novel heterocyclic analogs of diphenylethylene compounds” (THERACOS, INC., priority 2002, published 2006).
Read-outs that look alike come from different tables or passages of the source.

Key:
SJL-/J mice = assay: Experimental allergic encephalomyelitis (EAE) in mice; type: in vivo; conditions: 200 μg once daily subcutaneous, FIG. 14
AIA rats = assay: Cancellous bone loss in adjuvant induced arthritic (AIA) rats, MicroCT of right proximal tibia; type: in vivo, male Lewis rats
IL-6 = assay: LPS-induced IL-6 production in RAW cells (ELISA); type: cell-based; conditions: RAW cells, 0.1, 1, 10, 50 or 100 pM, FIG. 10
ZDF rats = assay: Antihyperglycemic activity in Zucker diabetic fatty rats; type: in vivo
COX-1 = biological target: T1, COX-1 (Mus musculus, UniProt P22437); assay: COX-1 activity in RAW cells; type: cell-based; conditions: 0.1-100 μM
T1 construct: aliquots used to determine COX-2 and COX-1 activity; endogenous in cells; host or cells: RAW (RAW 264.7) cells
T1 sequence (P22437 27-602): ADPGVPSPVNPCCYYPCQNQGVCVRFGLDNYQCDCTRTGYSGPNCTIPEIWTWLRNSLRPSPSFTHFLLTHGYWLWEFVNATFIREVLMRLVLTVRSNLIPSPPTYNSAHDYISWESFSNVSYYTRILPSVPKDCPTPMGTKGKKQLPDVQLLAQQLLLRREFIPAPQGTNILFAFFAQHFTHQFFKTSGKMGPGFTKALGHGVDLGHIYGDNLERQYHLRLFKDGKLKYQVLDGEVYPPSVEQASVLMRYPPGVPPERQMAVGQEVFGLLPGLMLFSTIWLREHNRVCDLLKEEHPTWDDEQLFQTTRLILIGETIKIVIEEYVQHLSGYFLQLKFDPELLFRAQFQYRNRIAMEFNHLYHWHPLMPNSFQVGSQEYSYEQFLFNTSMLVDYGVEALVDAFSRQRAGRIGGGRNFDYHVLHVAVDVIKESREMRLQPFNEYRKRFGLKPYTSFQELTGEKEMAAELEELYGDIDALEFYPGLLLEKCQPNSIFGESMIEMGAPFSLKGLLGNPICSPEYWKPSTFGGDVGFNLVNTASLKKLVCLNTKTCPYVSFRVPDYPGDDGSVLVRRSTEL
Description: After 1 hour LPS (0.1 pg/mL) was added and cells were incubated an additional 6 hours. Cell supernatant was then collected, aliquoted and frozen at −70° C., and aliquots used to determine COX-2 and COX-1 activity. Compound 11, but not rosiglitazone, inhibited the activity of COX-2 (as measured by PGE2 production in a 50 μl sample).

Human PPAR-γ2 = biological target: T2, Human PPAR-γ2 (Homo sapiens, UniProt P37231); assay: PPAR-gamma mediated transactivation of PPRE-luciferase reporter; type: cell-based
T2 construct: inserting the PPARγ2 cDNA coding region into pcDNA3.1+ vector; expressed in transfected cells; host or cells: HEK293 cells (ATCC)
T2 sequence (P37231 1-505): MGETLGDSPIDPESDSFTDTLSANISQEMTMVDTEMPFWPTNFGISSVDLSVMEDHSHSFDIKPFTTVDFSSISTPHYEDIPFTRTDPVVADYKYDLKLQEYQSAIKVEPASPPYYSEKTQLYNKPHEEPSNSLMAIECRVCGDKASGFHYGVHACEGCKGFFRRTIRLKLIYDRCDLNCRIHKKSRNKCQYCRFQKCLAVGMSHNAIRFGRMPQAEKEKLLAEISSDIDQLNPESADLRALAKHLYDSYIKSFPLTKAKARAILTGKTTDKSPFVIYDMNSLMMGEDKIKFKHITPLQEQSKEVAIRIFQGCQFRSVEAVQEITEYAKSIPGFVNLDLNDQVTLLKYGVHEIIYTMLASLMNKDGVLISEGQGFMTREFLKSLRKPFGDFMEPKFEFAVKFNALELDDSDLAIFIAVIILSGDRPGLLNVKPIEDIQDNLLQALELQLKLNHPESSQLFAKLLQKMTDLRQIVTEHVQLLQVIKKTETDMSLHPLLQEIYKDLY
Description: Human PPAR-γ2 expression vector was constructed by inserting PPAR-γ2 encoding region into pcDNA3.1+ vector (Invitrogen, Carlsbad, Calif.). Luciferase reporter vector was constructed by ligating PPRE response element adjacent to the upstream of Firefly luciferase coding region. Control vector, pRL-SV40 expressing Renilla luciferase was purchased from Promega (Madison, Wis.).
About 2.7×10^4 293 cells (ATCC, Manassas, Va.) were plated into a 35 mm culture well and maintained in Eagle's Minimal Essential Medium (ATCC, Manassas, Va.) supplemented with 10% heat inactivated horse serum (ATCC, Manassas, Va.) for 24 hours. Expression, reporter and control vectors (2.5 ng control and 100 ng others per culture well) were transfected by LI[…]™ Reagent (Invitrogen, Carlsbad, Calif.). Transfection reagent and DNA were prepared according to manufacture's recommendations and incubated with cells for 3 hours followed by adding equal volume EMEM supplemented with 20% horse serum. Twenty-four hours after transfection, cells were treated with vehicle or compounds at indicated final concentration for 24 hours. Final concentration of vehicle was 0.001% DMSO (Sigma, ST Louis, Mo.) in medium. Vehicle and compound treatment were all conducted in triplicate. Each culture well was then assayed for a response characterized by increased Firefly luciferase activity normalized with Renilla luciferase activity.
Assays for Firefly luciferase activity and Renilla luciferase activity followed the standard protocol of Dual-luciferase Reporter® Assay System (Promega, Madison, Wis.). Briefly, 400 μl Passive Lysis Buffer was added into each culture well and all wells were placed on a shaker for 15 minutes. Five μl cell lysate of each well was added to a reaction tube. Luciferase reagent II and Stop & Glo® were injected into the reaction tube sequentially by Sirius Luminometer (Berthold Detection Systems, Pforzheim, Germany). Final reporter activity was calculated as the ratio of Firefly luciferase activity over by Renilla luciferase activity.
Human PPARγ2 expression vector was constructed by inserting the PPARγ2 cDNA coding region into pcDNA3.1+ vector (Invitrogen, Carlsbad, Calif.). The PPRE-luciferase reporter gene was the kind gift of Dr. Kenneth Feingold. The control vector, pRL-SV40 containing the Renilla luciferase cDNA was purchased from Promega (Madison, Wis.). About 2.7×10^4 HEK293 human embryonal kidney cells (ATCC) were plated into a 35-mm tissue culture dish and maintained in Eagle Modified Essential Medium (EMEM, ATCC) containing 10% heat-inactivated horse serum for 24 h. Expression, reporter (100 ng/dish) and control (2.5 ng/dish) vectors were transfected using LI[…]™ Reagent (GibcoBRL) according to manufacturer's recommendation. At 24 h after transfection, cells were treated with vehicle (0.001% DMSO in medium) or compounds at the indicated concentration and incubated for 24 h. Each treatment was conducted in triplicate. Each culture dish was assayed for firefly luciferase activity normalized by Renilla luciferase activity to account for differences in transfection efficiency. Luciferase activity was measured using the Dual-luciferase Reporter® Assay System (Promega) and a Sirius luminometer (Berthold Detection System, Pforzheim, Germany).

COC(=O)C(=Cc1cc(OC)cc(OC)c1)c1ccc(Oc2ccc(CC3SC(=O)NC3=O)cc2)cc1 (stereo not shown) [Compound 11, 3-(3,5-Dimethoxyphenyl)-2-{4-[4-(2,4-dioxothiazolidin-5-ylmethyl)-phenoxy]-phenyl}-acrylic acid methyl ester]
amelioration of EAE (clinical score) (SJL-/J mice): highly effective | less cancellous bone lost (AIA rats; AIA rats, treated vs vehicle): ~50% | C.Th (AIA rats; right proximal tibia): 186 ± 25 μm | Conn. Dens (AIA rats; right proximal tibia): 38.3 ± 19.7 l/mm3 | SMI (0-3) (AIA rats; right proximal tibia): 2.8 ± 0.3 | Tb.N (AIA rats; right proximal tibia): 2.6 ± 0.5 l/mm | BV/TV (AIA rats; right proximal tibia, compound 11 50 mg/kg oral, etanercept 1.67 mg/kg i.p., once daily): 13.7 ± 4.7% | inhibition of LPS-induced IL-6 production (IL-6): better inhibitor of IL-6 than rosiglitazone | glucose levels (ZDF rats): normalizes glucose levels | more weight gained than control animals (ZDF rats; 50 mg/kg oral once daily, 8 to 9 days): 13% | decrease in blood glucose levels (ZDF rats; 50 mg/kg oral once daily, 8 to 9 days, FIG. 21): 50 % vs baseline | inhibition of COX-1 activity (COX-1): Neither compound inhibited | transactivation potency less than that of rosiglitazone (Human PPAR-γ2): ≤ 30 fold | EC50 (Human PPAR-γ2; HEK293 cells, human PPAR-gamma2, ± SE, n=5, FIG. 24, read-out: EC50 for transactivation of PPRE-Luc reporter): 284 ± 36 nM | EC50 (Human PPAR-γ2; cells transfected with human PPAR-gamma2, 24 hours, non-linear regression, read-out: EC50, induction of PPAR-γ mediated luciferase activity): 280 nM | PPAR-gamma transactivation potency relative to a comparator, in words (Human PPAR-γ2; in vitro transactivation assay): approximately one-thirtieth the activity of rosiglitazone
